What was measured:
[1] = biological target: serine/threonine kinases (STK) in colon carcinoma PDX lysates; experiment: PamChip serine/threonine kinase (STK) activity profiling of colon carcinoma PDX tumor lysates; set-up: species or system human PDX grown in mice; Kinase score: scale not given here; conditions: for Kinase statistic: value<0 = higher activity in vehicle-treated tumors; for Kinase score: vehicle-treated vs KcAng(1-7)-treated tumors
Description: In particular, to determine the effect of treatment on kinase activities, Tyrosine (PTK) and Serine/Threonine (STK) PamChip®-based kinase activity profiling in lysates from colon carcinoma PDX was performed by PamGene International B.V., The Netherlands.
PamGene® kinase activity profiles were measured for vehicle-treated colon cancer PDX tumors (control, n=10) and KcAng(1-7)-treated colon cancer PDX tumors (treatment, n=10).
Frozen tissues of tumor samples were processed to make lysates followed by determination of tyrosine kinase and serine/threonine kinase activity profiles. Datasets were analyzed by PamGene bioinformatics toolbox, for example by using PamGene's method called Upstream Kinase Analysis.
Kinase Score was used for ranking kinases based on their significance and specificity in terms of the set of peptides used for the corresponding kinase. Kinase statistics indicates the overall change of the peptide set that represents the kinase. Kinase statistics value<0 indicates higher activity in vehicle-treated tumors.

U87MG glioblastoma CDX = experiment: Subcutaneous U87MG glioblastoma CDX: tumor weight and time of tumor progression; type: in vivo, cd1 nu/nu mice (human GBM cell line); conditions: for tumor weight [%]: relative to vehicle = 100
Description: Effects of KcAng(1-7) were evaluated in vivo in a subcutaneous GBM xenograft model in nude mice. Insurgence of neurologic phenomena and differences in the survival rates were evaluated. Human GBM cell lines U87MG and U251MG were used. Cell lines were grown in DMEM nutrient mixture supplemented with 10% fetal bovine serum, 1% penicillin/streptomycin, and 25 mM HEPES buffer. All cell lines were cultured at 37° C. in a humidified atmosphere consisting of 5% CO2 and 95% air. Medium was changed every 2 days and the cell morphology was evaluated under microscope daily.
Six-week-old male athymic nude mice (age 5-7 weeks) were housed with free access to food and water in a temperature-controlled room. Each group is represented by 10 xenograft cd1 nu/nu mice. The mice were injected s.c. in the right distal hind limb with one million of cultured human tumor cell lines suspended in 0.15 mL of 2:1 solution of PBS/Matrigel (Matrigel BD Biosciences). Xenografts were measured every four days with a digital caliper in two perpendicular dimensions. Tumor volume was calculated according to the following formula:
Tumor volume=(tumor width)×(tumor width)×(tumor length)÷2
At the end of experiments, mice were euthanized and tumors removed. Weight loss or other signs of distress such as hunched posture were checked during and after treatments.
Efficacy of treatment was evaluated by: (1) the size of tumors (vehicle control and treated), (2) the relative weight at the end of experiment, and (3) the indirect evaluation of angiogenesis by determining hemoglobin levels.
In vivo tumor response to treatment was evaluated using the following parameters: (i) Complete response (CR): defined as the disappearance of a measurable lesion, (ii) Partial response (PR): defined as a reduction of greater than 50% of the sum of the products of the cross-sectional diameters of the measurable lesion, (iii) Stable disease (SD): defined as a reduction of less than 50% or an increase of less than 25% in the sum of the products of the cross-sectional diameters of the measurable lesions, (iv) Tumor progression (TP): defined as an increase of greater than […] in the sum of the products of the cross-sectional diameters of the measured lesion, (v) Time to progression (TTP) defining the tumor growth delay. Tumor progression was calculated through the analysis of bioluminescence imaging (BLI) photon counts and when possible through the analyses of tumor volumes calculated by magnetic resonance imaging (MRI), (vi) Disease free survival (DFS) is the time elapsed between the time point at which no luciferase activity is detectable anymore and the death of the animal, (vii) Overall survival (OS) is the time elapsed between tumor inoculation and death of the animal. […] Luciferase transfected cells were used for bioluminescence evaluations.
Data are presented as mean and standard error of the mean (SEM) or standard deviation (SD). Statistical comparisons between control and treated groups were established by carrying out the Kruskal-Wallis test (a nonparametric one-way analysis of variance) or the Mann-Whitney test (in the case of two groups). The level of significance was corrected by multiplying the P value by the number of comparisons performed (n) according to […] correction. TP, TTP and DFS were analyzed by Kaplan-Meier curves and Gehan's generalized Wilcoxon test. All statistical analyses were undertaken using SPSS 10.0.
Mice with U87MG cell CDX were randomized at day 0. KcAng(1-7) was injected daily subcutaneously (0.2 μg/kg) starting at day 0 until the (ethical) endpoint maximally at day 42. TMZ was administered at 16 mg/kg during 5 consecutive days, that is from […]. Volumetric evaluation of the tumor was performed every 4 days and tumor weight was measured at the end of the experiment.
Synergism was determined using the methods described in Clarke et al. Breast Cancer Research and Treatment 46:255-278 (1997).
Mice with U87MG cell CDX were randomized at day 0. […]

Lys-Asp-Arg-Val-Abu/Ala-Ile-His-Abu/Ala (KDRVAIHA; not fully specified; cyclic thioether (Abu/Ala bridge); VARIANT (5)..(5) /replace=“Abu”; VARIANT (8)..(8) /replace=“Abu”; SITE (1)..(8) /note=“Variant residues given in the sequence have no preference with respect to those in the annotations for variant positions”) [KcAng(1-7)]
Kinase statistic ([1]; kinase CDC2/CDK1): −0.80 | Kinase score ([1]; kinase CDC2/CDK1): 3.79 | Kinase statistic ([1]; kinase CDK2): −0.88 | Kinase score ([1]; kinase CDK2): 5.40 | Kinase statistic ([1]; kinase CDK4): −0.80 | Kinase score ([1]; kinase CDK4): 3.11 | Kinase statistic ([1]; kinase CDK5): −0.80 | Kinase score ([1]; kinase CDK5): 3.11 | Kinase statistic ([1]; kinase CDK6): −0.80 | Kinase score ([1]; kinase CDK6): 3.10 | Kinase statistic ([1]; kinase CDK9): −0.83 | Kinase score ([1]; kinase CDK9): 4.19 | Kinase statistic ([1]; kinase CDKL2): −0.98 | Kinase score ([1]; kinase CDKL2): 4.62 | Kinase statistic ([1]; kinase CDKL5): −0.82 | Kinase score ([1]; kinase CDKL5): 4.21 | Kinase statistic ([1]; kinase ERK1): −0.82 | Kinase score ([1]; kinase ERK1): 4.44 | Kinase statistic ([1]; kinase ERK2): −0.79 | Kinase score ([1]; kinase ERK2): 3.84 | Kinase statistic ([1]; kinase ERK5): −0.90 | Kinase score ([1]; kinase ERK5): 5.40 | Kinase statistic ([1]; kinase JNK1): −0.77 | Kinase score ([1]; kinase JNK1): 3.92 | Kinase statistic ([1]; kinase JNK2): −0.77 | Kinase score ([1]; kinase JNK2): 3.67 | Kinase statistic ([1]; kinase JNK3): −0.77 | Kinase score ([1]; kinase JNK3): 4.08 | Kinase statistic ([1]; kinase MAPK14): −0.79 | Kinase score ([1]; kinase MAPK14): 3.54 | Kinase statistic ([1]; kinase PCTAIRE2): −0.74 | Kinase score ([1]; kinase PCTAIRE2): 3.44 | Kinase statistic ([1]; kinase RAF1): −0.74 | Kinase score ([1]; kinase RAF1): 2.97 | Kinase statistic ([1]; kinase RSK3): −0.75 | Kinase score ([1]; kinase RSK3): 3.42 | Kinase statistic ([1]; kinase p38[beta]): −0.84 | Kinase score ([1]; kinase p38[beta]): 4.14 | Kinase statistic ([1]; kinase p38[gamma]): −0.82 | Kinase score ([1]; kinase p38[gamma]): 3.47 | Time of tumor progression - TTP, mean (days ± SD) (U87MG glioblastoma CDX; KcAng(1-7) 0.2 μg/kg/d s.c., TMZ 16 mg/kg for 5 days, or both): 12.80 ± 0.54 days | increase of the time of tumor progression (U87MG glioblastoma CDX; KcAng(1-7) 0.2 μg/kg/d vs vehicle): approximately 2 days | Time of tumor progression - TTP, mean (days ± SEM) (U87MG glioblastoma CDX; KcAng(1-7) 1 μg/kg/d s.c., Losartan 20 mg/kg/d i.p., or both): 15.2 ± 0.9 days | Tumor weight, mean (mg ± SEM) (U87MG glioblastoma CDX; KcAng(1-7) 1 μg/kg/d s.c., Losartan 20 mg/kg/day i.p., or both): 580 ± 27 mg | Tumor weight, mean (mg ± SD) (U87MG glioblastoma CDX; end of experiment, KcAng(1-7) 0.2 μg/kg/d s.c., TMZ 16 mg/kg for 5 days, or both): 830 ± 57 mg | tumor weight [%] (U87MG glioblastoma CDX; KcAng(1-7) 0.2 μg/kg/d, TMZ 16 mg/kg, or both): 79.8% | tumor weight [%] (U87MG glioblastoma CDX; KcAng(1-7) 1 μg/kg/d, Losartan 20 mg/kg/d, or both): 55.8%
